In US20230277550A1, “Methods for Treating Respiratory Diseases Characterized by Mucus Hypersecretion” (The Board of Trustees of the Leland Stanford Junior …, priority 2020, published 2023):

What was measured:
[1] = test system: Mature (ALI+30d) primary cystic fibrosis human airway epithelial cells; experiment: DAPT treatment of mature cystic fibrosis cultures; format: cell-based; conditions: mature CF cultures, one week (ALI+30 to +37d)
Experimental: Mature (ALI+30d) primary cystic fibrosis human airway epithelial cells were treated with DAPT for one week (ALI+30 to +37d), then labeled with anti-acetylated α-Tubulin (green) and ECAD (red) antibodies.

[2] = test system: healthy and CF primary human airway epithelial cultures; experiment: SEM of cilia in healthy and CF cultures; format: cell-based; conditions: healthy and CF cultures under DAPT vs untreated healthy cultures
[3] = test system: Mature (ALI+30d) primary human airway epithelial cells; experiment: GSI treatment of mature (ALI+30d) cultures; format: cell-based; conditions: mature cultures treated one (ALI+30 to +37d) or two weeks (ALI+30 to +44d)
Experimental: Mature (ALI+30d) primary human airway epithelial cells were treated with DAPT and semagacestat for one (ALI+30 to +37d) or two weeks (ALI+30 to +44d), then labeled with anti-acetylated α-Tubulin (green) and ECAD (red) antibodies.

[4] = test system: primary human nasal epithelial cells (HNECs); experiment: Semagacestat dose response on multiciliated cell (MCC) formation in HNEC ALI cultures; format: cell-based; conditions: 1 µM DAPT; p <0.01 by ANOVA with Dunnett's test
Experimental: Air-Liquid Interface (ALI) cultures were prepared as described in Vladar EK, Nayak JV, Milla CE, Axelrod JD. Airway epithelial homeostasis and planar cell polarity signaling depend on multiciliated cell differentiation. JCI Insight. 2016;1(13);e88027. Human nasal epithelial cells (HNECs) were generated from human sinonasal epithelial brushings or from tissue obtained from patients undergoing endoscopic sinus surgery at Stanford Hospital and cultured as described in Vladar et al.
Cultures were treated with varying doses of semagacestat. DAPT (Abcam) was used ([…]) as a positive control for GSI activity. Cultures were labeled at ALI+21d with anti-acetylated α-tubulin (green) and ECAD (red) antibodies to mark cilia and epithelial junctions.
The ratio was defined as MCC number/total luminal cells. Counting was done on one representative image from 5 culture replicates from a single donor.

[5] = test system: Primary human airway epithelial cells; experiment: MCC formation by timing of GSI treatment (proliferation, differentiation, continuous); format: cell-based
Experimental: Primary human airway epithelial cells were treated with DAPT and LY45139: i) during proliferation only (ALI-5 to -1d), ii) during differentiation only (ALI+0 to +21d) or iii) continuously during the entire culture duration, followed by labeling at ALI+21d with anti-acetylated α-Tubulin (green) and ECAD (red) antibodies.

[6] = test system: HNEC cultures from a CF patient; experiment: IL-13 induced chronic inflammation model in ALI HNEC cultures; format: cell-based, human; conditions: DAPT 1 um, semagacestat 125 nm, days 14-21
Experimental: Administration of IL-13 to ALI cultures induces goblet cell hyperplasia and is a useful model of chronic inflammation. ALI HNEC cultures were prepared as described in Vladar et al. ALI cultures were treated with and without administration of Il-13 on days 7-14. DAPT (1 um), semagacestat (125 nm) or vehicle control were administered on days 14-21. PFA-fixed cultures were stained for Muc5AC (red; mucin producing secretory cells), Acetylated tubulin (green; MCCs) and E-Cadherin (blue to reveal cell boundaries).
HNEC cultures from a CF patient were treated with IL-13 from ALI+7 to 14 to induce inflammation. […] IL-13 treatment increases the percentage of mucin positive secretory cells and decreases the percentage of MCCs.

[7] = test system: Primary human airway epithelial cells; experiment: GSI treatment from the apical or basal surface; format: cell-based; conditions: ALI+0 to +21d, apical or basal application
Experimental: Primary human airway epithelial cells were treated with DAPT and LY45139 during differentiation only (ALI+0 to +21d) from either the apical or basal surface, then labeled at ALI+21d with anti-acetylated α-Tubulin (green) and ECAD (red) antibodies. […] Apical treatment eliminates the air-liquid interface, which results in the poor epithelial structure and multiciliated cell differentiation in the untreated cultures, which is partially rescued by GSI treatment.

[8] = test system: primary human epithelial cells; experiment: Ciliary beat frequency and cilium length with DAPT; format: cell-based; conditions: cells differentiated in the presence of DAPT vs untreated
CFTR = CFTR current in Ussing chambers, GSI with or without ETI; format: cell-based, human
Experimental: Cells grown at an air liquid interface were mounted on a holding slider and inserted on an Ussing chamber for electrophysiological short circuit current (Isc) measurements. Solutions in the serosal and mucosal bath were prepared so that a chloride gradient was established between both sides. After stable baseline current recordings were obtained, agonists were added in the following order: amiloride (10 µM) to block sodium channel activity, forskolin (10 µM) to stimulate CFTR, Ivacaftor (10 µM) to potentiate CFTR activity, and CFTRinh-172 (20 µM) to block CFTR current. For each agonist signals were monitored until a plateau in current was noted before adding the next agonist. The delta-Isc in response to CFTRinh-172 was used as our main read out for CFTR-mediated chloride transport.
We directly measured CFTR activity in cultures from CF patients treated with GSI with or without well-established effective in vitro doses of Trikafta (Elexcaftor/Tezacaftor/Ivacaftor or “ETI”). Veit, G., et al., JCI (2020) 10.1172/jci.insight.139983. Measurements were performed in Ussing chambers. […] In some individual experiments, there appeared to be a synergistic effect in the combination treatment: GSI alone has no effect but the combination treatment produced a greater response than ETI alone. This effect was not consistently seen, but raised the possibility that synergy might be observed with lower ETI doses.
To examine this further, we tested MK04752 in combination with varying doses of ETI (FIG. 28).

[9] = test system: Primary human airway epithelial cells; experiment: MCC formation with a variety of GSIs at high and low concentrations; format: cell-based; conditions: for epithelial structure: high concentrations; for epithelial structure / multiciliated cell formation: ALI+0 to +21d; for multiciliated cell formation: low concentration; for Notch signaling and differentiation towards MCCs: nanomolar range, human nasal epithelial cells
[10] = test system: Primary nasal epithelial cells from two CF donors (F508del homozygotes); experiment: Ciliary beat frequency (CBF) in CF donor cultures, MK-0752 and Elexacaftor; format: cell-based, human; conditions: MK-0752 125 nM or triple modulator with Elexacaftor 100 nM; p < 0.001
[11] = cited from earlier work

With `C[C@H](NC(=O)Cc1cc(F)cc(F)c1)C(=O)NC(C(=O)OC(C)(C)C)c1ccccc1` (some centres unmarked) [DAPT] the “formation of additional multiciliated cells” value [1] was “induces the formation of additional multiciliated cells in mature cystic fibrosis cultures”, the “structure of multiciliated cells by SEM” value [2] was “indistinguishable from those in untreated healthy cultures” and the “formation of additional multiciliated cells” value [3] was “induces the formation of additional multiciliated cells”. The “ratio MCC number/total luminal cells” value [4] was “significant increases”, the MCC cell numbers ([5]; treatment during differentiation (differentiation only ALI+0 to +21d, and continuous)) was “increased MCC cell numbers” and the effect on differentiation ([5]; treatment during proliferation only (ALI-5 to -1d)) was “had no effect on differentiation”. The “percentage of MCCs” value ([6]; after IL-13 (ALI+7 to 14)) was “increasing the percentage of MCCs”, the “percentage of mucin positive secretory cells” value ([6]; after IL-13 (ALI+7 to 14)) was “decreasing the percentage of mucin positive secretory cells” and the “percentage of MCCs” value ([6]; controls without IL-13) was “increase the percentage off MCCs”. The ciliated cell formation [7] was “induces ciliated cell formation via both apical and basal application”, the ciliary beat frequency [8] was “modest, but significant increase” and the cilium length [8] was “no difference”.

For `O=C(O)CC[C@H]1CC[C@@](c2cc(F)ccc2F)(S(=O)(=O)c2ccc(Cl)cc2)CC1` [MK-0752], the “CFTR current with suboptimal doses of ETI” value (CFTR; MK04752 with varying (reduced Elexacaftor) doses of ETI) was “suboptimal doses of ETI appear to be potentiated by MK04752”, the “CFTR current induced by ETI” value (CFTR; cultures from CF patients, GSI plus ETI) was “Neither LY45139 (FIG. 26) nor MK04752 (FIG. 27) impaired the CFTR current” and the epithelial structure [9] was “disrupted epithelial structure”. The multiciliated cell formation [9] was “induced multiciliated cell formation”, the “Notch signaling and differentiation towards MCCs” value [9] was “effective in blocking Notch signaling, driving differentiation towards MCCs” and the “ciliary beat frequency (CBF) vs control” value [10] was “significant effect in increasing the CBF”. For the same molecule, the “most common drug-related toxicities” value ([11]; 450 to 4,200 mg, three schedules) was “diarrhea, nausea, vomiting, and fatigue” and the tolerability ([11]; weekly dosing) was “generally well-tolerated”.

For `CC(C)(C(=O)NCC(F)(F)C(F)(F)F)C(=O)N[C@@H]1C(=O)Nc2ccccc2-c2ccccc21` [RO-4929097], the epithelial structure [9] was “disrupted epithelial structure”, the multiciliated cell formation [9] was “induced multiciliated cell formation” and the “Notch signaling and differentiation towards MCCs” value [9] was “effective in blocking Notch signaling, driving differentiation towards MCCs”.

In the case of `CCC[C@H](N[C@H]1CCc2cc(F)cc(F)c2C1)C(=O)Nc1cn(C(C)(C)CNCC(C)(C)C)cn1` [nirogacestat, (S)-2-((S)-5,7-difluoro-1,2,3,4-tetrahydronaphthalen-3-ylamino)-N-(1-(2-m-ethyl-1-(neopentylamino)propan-2-yl)-1H-imidazol-4-yl)pentanamide], the epithelial structure [9] is reported as “disrupted epithelial structure”, the multiciliated cell formation [9] is reported as “induced multiciliated cell formation” and the “Notch signaling and differentiation towards MCCs” value [9] is reported as “effective in blocking Notch signaling, driving differentiation towards MCCs”.
